This passage reports inhibition, Ki and IC50 results from US20120190751A1, “COMPOUNDS FOR TREATMENTS OF INFLAMMATION” (ANA-MAR AB, priority 2009, published 2012).

The structures appear in SMILES notation.

One assay deals with 5-HT7 receptor (Homo sapiens, UniProt P34969). In words: Radio-ligand binding assay 5-HT7. The following applies: 10 μM compound; [3H] LSD 2.5 nM; human rec. CHO cells. The procedure:
(§1) Determination of binding affinities for various 5-HT receptors was performed by radio-ligand binding assays. Briefly, tissue or cells expressing the receptor of interest were suspended in incubation buffer and radio-ligands and 10 μM N-(2-chloro-3,4-dimethoxybenzylidene-amino)guanidine were added. After incubation, separation of bound and free radio-ligand was done by multiple washings with buffer.
(§2) The results were presented as the percent inhibition of specific binding. The IC50 values were determined by a non-linear least square regression analysis using MathIQ™ (ID Business Solution Ltd., UK). The inhibition constants (Ki) were calculated using the equation of Cheng and Prusoff (Cheng Y, Prusoff W H, Biochem. Pharmacol. 22:3099-3108, 1973) using the observed IC50 of the tested compound, the concentration of radioligand employed in the assay and the historical values for the KD of the ligand.

In a further assay the target is 5-HT1D receptor (Homo sapiens, UniProt P28221). In words: Radio-ligand binding assay 5-HT1D. The following applies: 10 μM compound; [3H]-5-CT 2 nM; human cortex. How it is done: as §1, §2
A further assay concerns the target T1, 5-HT1A receptor (Homo sapiens, UniProt P08908).
T1 sequence (P08908 1-422): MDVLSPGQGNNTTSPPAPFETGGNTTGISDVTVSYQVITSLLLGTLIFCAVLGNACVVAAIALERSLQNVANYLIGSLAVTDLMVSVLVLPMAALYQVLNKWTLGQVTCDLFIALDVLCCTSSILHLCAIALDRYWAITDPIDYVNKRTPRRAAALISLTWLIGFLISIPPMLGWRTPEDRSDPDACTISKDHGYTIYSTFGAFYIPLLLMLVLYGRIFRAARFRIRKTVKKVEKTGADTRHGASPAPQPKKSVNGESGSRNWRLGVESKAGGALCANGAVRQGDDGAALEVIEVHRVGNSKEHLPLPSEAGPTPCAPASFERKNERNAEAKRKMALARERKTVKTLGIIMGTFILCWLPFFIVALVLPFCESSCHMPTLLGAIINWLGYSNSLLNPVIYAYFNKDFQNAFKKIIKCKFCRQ
The assay can be described thus: Radio-ligand binding assay 5-HT1A. As to conditions: 10 μM compound; [3H]-8-OH-DPAT 0.5 nM; human rec. HEK293 cells. How it is done: as §1, §2

The next assay concerns the target T2, 5-HT4 receptor (Cavia porcellus, UniProt O70528).
T2 construct: tissue or cells expressing the receptor of interest were suspended in incubation buffer; from tissue; host or cells: guinea-pig tissue (which tissue is not visible)
In words: Radio-ligand binding assay 5-HT4. Also noted: species or system Guinea pig. The procedure: as §1, §2

The next assay deals with T3, 5-HT2B receptor (Rattus norvegicus, UniProt P30994).
T3 construct: induces contraction in the rat stomach fundus from Wistar rats; from tissue; host or cells: rat (Wistar) stomach fundus
The assay can be described thus: 5-HT2B tissue assay (functionality, rat stomach fundus contraction). The assay is classed as cell-based. As to conditions: FIG. 2, read-out: IC50, antagonistic effect on 5-HT2B. How it is done:
(Cohen M L, Fludzinski L A. Contractile serotonergic receptor in rat stomach fundus. J. Pharmacol. Exp. Ther. (1987 October); 243(1):264-269.)
FIG. 2. Antagonistic effect of N-(2-chloro-3,4-dimethoxybenzylideneamino)guanidine on 5-HT2B and 5-HT2C receptors. The functionality of the compound was evaluated with the 5-HT2B tissue assay and the 5-HT2C GTPγS binding assay methods.
N-(2-chloro-3,4-dimethoxybenzylideneamino)guanidine was further tested for functionality against 5-HT2B (Cohen et al. (1987), J. Pharmacol. Exp. Ther. 243:264-269), 5-HT2C (Adlersber M, et al. (2000), J. Neurosci. Res. 61(6):674-685; Cussac D. et al. (2002), Mol. Pharmacol. 62(3):578-589) and 5-HT4 (Reeves et al. (1991), Br. J. Pharmacol. 103:1067-1072).

T2 sequence (O70528 whole entry): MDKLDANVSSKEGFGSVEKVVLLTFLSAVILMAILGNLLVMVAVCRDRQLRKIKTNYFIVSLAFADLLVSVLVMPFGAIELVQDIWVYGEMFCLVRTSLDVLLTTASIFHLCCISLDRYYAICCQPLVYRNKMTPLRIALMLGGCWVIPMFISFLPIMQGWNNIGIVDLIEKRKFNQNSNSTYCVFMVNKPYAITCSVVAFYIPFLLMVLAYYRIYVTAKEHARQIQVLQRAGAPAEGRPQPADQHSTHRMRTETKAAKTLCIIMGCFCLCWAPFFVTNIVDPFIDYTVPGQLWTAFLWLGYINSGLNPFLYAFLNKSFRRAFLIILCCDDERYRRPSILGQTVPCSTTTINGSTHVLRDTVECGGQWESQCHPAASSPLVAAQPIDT
Sequence of 5-HT1D receptor (P28221 whole entry): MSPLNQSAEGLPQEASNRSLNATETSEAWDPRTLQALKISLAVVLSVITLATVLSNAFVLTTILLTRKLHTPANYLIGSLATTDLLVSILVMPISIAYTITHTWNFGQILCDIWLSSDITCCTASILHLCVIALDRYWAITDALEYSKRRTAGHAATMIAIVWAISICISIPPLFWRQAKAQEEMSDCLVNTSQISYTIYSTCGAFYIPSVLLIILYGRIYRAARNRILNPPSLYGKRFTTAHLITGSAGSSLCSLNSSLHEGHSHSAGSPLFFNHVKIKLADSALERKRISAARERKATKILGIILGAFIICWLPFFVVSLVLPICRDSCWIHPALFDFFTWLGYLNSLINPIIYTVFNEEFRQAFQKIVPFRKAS
Sequence of 5-HT7 receptor (P34969 whole entry): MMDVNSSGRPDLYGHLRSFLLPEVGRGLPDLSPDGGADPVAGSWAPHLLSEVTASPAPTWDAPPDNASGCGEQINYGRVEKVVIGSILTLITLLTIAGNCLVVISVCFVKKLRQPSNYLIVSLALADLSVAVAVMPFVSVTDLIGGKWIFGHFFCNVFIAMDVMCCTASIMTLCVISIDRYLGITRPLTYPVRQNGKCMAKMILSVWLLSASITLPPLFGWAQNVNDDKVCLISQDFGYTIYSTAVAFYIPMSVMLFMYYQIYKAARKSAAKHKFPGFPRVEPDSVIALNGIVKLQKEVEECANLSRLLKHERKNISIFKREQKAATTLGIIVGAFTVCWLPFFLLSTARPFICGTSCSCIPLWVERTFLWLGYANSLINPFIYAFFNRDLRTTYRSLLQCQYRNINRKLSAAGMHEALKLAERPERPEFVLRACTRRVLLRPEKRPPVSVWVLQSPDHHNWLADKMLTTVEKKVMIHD
T3 sequence (P30994 whole entry): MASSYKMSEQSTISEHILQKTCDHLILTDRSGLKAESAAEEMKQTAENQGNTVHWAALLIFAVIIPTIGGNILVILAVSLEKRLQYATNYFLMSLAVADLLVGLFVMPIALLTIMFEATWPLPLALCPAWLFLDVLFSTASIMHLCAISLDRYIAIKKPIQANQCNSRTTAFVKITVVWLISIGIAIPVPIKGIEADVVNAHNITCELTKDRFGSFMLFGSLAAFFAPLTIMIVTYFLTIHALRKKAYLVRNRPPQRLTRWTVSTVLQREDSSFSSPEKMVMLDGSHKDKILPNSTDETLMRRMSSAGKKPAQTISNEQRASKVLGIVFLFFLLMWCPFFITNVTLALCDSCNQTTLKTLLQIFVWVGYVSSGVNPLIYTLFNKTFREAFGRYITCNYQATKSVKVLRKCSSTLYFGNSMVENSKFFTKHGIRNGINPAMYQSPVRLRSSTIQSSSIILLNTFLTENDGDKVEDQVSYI

As for `COc1ccc(C=NNC(=N)N)c(Cl)c1OC` [N-(2-chloro-3,4-dimethoxybenzylideneamino)guanidine], the inhibition at 10 µM on 5-HT7 receptor is 53%; on 5-HT1D receptor, -5.7%; at 5-HT1A receptor it was 17%; at 5-HT4 receptor (10 μM compound, [3H] GR113808 0.2 nM, guinea pig striata), 99%. The same compound showed a Ki on 5-HT4 receptor (10 different concentrations, Cheng-Prusoff, FIG. 1) of 0.276 µM. The half-maximal inhibitory concentration (IC50) at 5-HT2B receptor is 61.7 µM.

One may read the inhibition as the change of the read-out against control, counted positive when it falls. As a reminder, the Ki is the dissociation constant of the complex between target and ligand, obtained from inhibition or displacement. In general, IC50 refers to the midpoint of a concentration-inhibition curve.
